{"source": "patent US20120164210A1", "about": "“PHOTODYNAMIC THERAPEUTIC AGENT HAVING CELL-SPECIFIC ACTIVE ACCUMULATION PROPERTIES” (The University of Tokyo, priority 2008, published 2012)", "origin": "cited, not measured here", "key": {"[1]": {"conditions": "after administration, light shielding required"}, "tumor tissue": {"test_system": "tumor tissue", "conditions": "in vivo"}}}
{"substance": "Photofrin", "values": [{"measurement": "sunlight hypersensitivity as a complication", "setting": "[1]", "result": "cause sunlight hypersensitivity"}, {"measurement": "incorporation into tumor tissue relative to normal tissue", "setting": "tumor tissue", "result": "about 4 times"}]}
